Laboratory results as given in PubChem BioAssay AID1963976 (Molecular Pharmacology Branch, DTP, NCI, 2024).

System: 435261-313-R-J1-PDC tumor spheroid viability
Assay: Anticancer human tumor 435261-313-R-J1-PDC patient-derived colon adenocarcinoma cell line growth inhibition [PI3K]
Details: spheroids with HUVEC and MSC; for IC50: curve of first compound; for viability, T/C: stronger effect = lower value
How it was run: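 Combination activity was assessed by viability in multicellular tumor spheroids carrying HUVEC and MSC components. Agents were tested with PI3K inhibitors from a Cmax-based top dose (or 10 microM) downward in half-log increments.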
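Also: spheroids exposed to compounds for 7 days.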

Cn1cnc2c(F)c(Nc3ccc(Br)cc3Cl)c(C(=O)NOCCO)cc21 + CC(Nc1ccc2c(c1)OCCn1cc(N3C(=O)OCC3C(F)F)nc1-2)C(N)=O
IC50 (second compound 0.00316 µM): < 9.49 nM | IC50 (second compound 0.01 µM): < 9.49 nM | IC50 (second compound 0.0316 µM): < 9.49 nM | IC50 (second compound 0.1 µM): < 9.49 nM | IC50 (second compound 0.316 µM): < 9.49 nM | IC50 (second compound 1 µM): < 9.49 nM | viability, T/C (second compound 0.00316 µM, first compound 0.00949 µM): 28.1% | viability, T/C (second compound 0.00316 µM, first compound 0.03 µM): 22.7% | viability, T/C (second compound 0.00316 µM, first compound 0.0949 µM): 14.8% | viability, T/C (second compound 0.00316 µM, first compound 0.3 µM): 15.4% | viability, T/C (second compound 0.00316 µM, first compound 0.949 µM): 16.1% | viability, T/C (second compound 0.00316 µM, first compound 3 µM): 11% | viability, T/C (second compound 0.01 µM, first compound 0.00949 µM): 25.1% | viability, T/C (second compound 0.01 µM, first compound 0.03 µM): 24.3% | viability, T/C (second compound 0.01 µM, first compound 0.0949 µM): 16.8% | viability, T/C (second compound 0.01 µM, first compound 0.3 µM): 16.2% | viability, T/C (second compound 0.01 µM, first compound 0.949 µM): 16.1% | viability, T/C (second compound 0.01 µM, first compound 3 µM): 11.5% | viability, T/C (second compound 0.0316 µM, first compound 0.00949 µM): 25.9% | viability, T/C (second compound 0.0316 µM, first compound 0.03 µM): 23.4% | viability, T/C (second compound 0.0316 µM, first compound 0.0949 µM): 15.4% | viability, T/C (second compound 0.0316 µM, first compound 0.3 µM): 14.8% | viability, T/C (second compound 0.0316 µM, first compound 0.949 µM): 12.2% | viability, T/C (second compound 0.0316 µM, first compound 3 µM): 6.61% | viability, T/C (second compound 0.1 µM, first compound 0.00949 µM): 21.4% | viability, T/C (second compound 0.1 µM, first compound 0.03 µM): 12.5% | viability, T/C (second compound 0.1 µM, first compound 0.0949 µM): 13.1% | viability, T/C (second compound 0.1 µM, first compound 0.3 µM): 11.7% | viability, T/C (second compound 0.1 µM, first compound 0.949 µM): 10.7% | viability, T/C (second compound 0.1 µM, first compound 3 µM): 6.55% | viability, T/C (second compound 0.316 µM, first compound 0.00949 µM): 12% | viability, T/C (second compound 0.316 µM, first compound 0.03 µM): 12.2% | viability, T/C (second compound 0.316 µM, first compound 0.0949 µM): 4.89% | viability, T/C (second compound 0.316 µM, first compound 0.3 µM): 8.13% | viability, T/C (second compound 0.316 µM, first compound 0.949 µM): 7.5% | viability, T/C (second compound 0.316 µM, first compound 3 µM): 2.69% | viability, T/C (second compound 1 µM, first compound 0.00949 µM): 11.9% | viability, T/C (second compound 1 µM, first compound 0.03 µM): 9.34% | viability, T/C (second compound 1 µM, first compound 0.0949 µM): 5.53% | viability, T/C (second compound 1 µM, first compound 0.3 µM): 6.3% | viability, T/C (second compound 1 µM, first compound 0.949 µM): 4.59% | viability, T/C (second compound 1 µM, first compound 3 µM): 0.73%
